Source: a melting point compilation (Tetko et al.; mined from patent text by program, amines drawn as free bases though some values may be those of a salt)

SMILES | melting point [°C]
O=C(O)c1ccccc1-c1nnc(-c2ccc(C(F)(F)F)cc2)s1 | > 300
C(=C\c1ncno1)/c1ccccc1 | 53 to 55
CSc1ccc(Oc2ccc(Cl)c(Cl)c2)nc1C#N | 156 to 158
Cc1cc(-c2nnn(C)n2)cc(C)c1OCCCCc1cc2cccnc2[nH]1 | 147 to 150
CN(C)C(=O)Cn1c(-c2ccc(Br)cc2)nc2cccnc21 | 224 to 225
N#Cc1cc(Cl)ccc1Oc1cc(N2CCOCC2)c(F)cc1OCc1ccccc1 | 134 to 135
COc1ccc(N2C[C@](C)(CO)OC2=O)cc1 | 131 to 132
O=C(O)c1nc2cc(N3CCOCC3)c([N+](=O)[O-])cc2[nH]c1=O | 214
O=C(O)C=Cc1cccc(Oc2ccccc2)c1 | 107 to 109
Cn1cc(C2=CC(=O)NC2=O)c2ccccc21 | 229 to 231
CSc1ccc(CSc2cccc(C(=O)Nc3ccc(Cl)cn3)c2)cc1 | 159 to 161
CCNc1cc(NS(=O)(=O)c2ccc(N)cc2)nc(NCC)n1 | 245 to 250
Cc1ccc(C(=O)NCCCCOc2ccc(-n3ccnc3)cc2)cc1 | 128 to 130
CN(O)C(=O)Nc1cccc(NC(=O)N(C)O)c1 | 146 to 147
COC1(c2ccccc2)N=CC(=O)N(C)c2ccc(Cl)cc21 (stereo unspecified) | 146 to 147
CC(C)(c1ccc(Oc2cccc(N)c2)cc1)c1ccc(C(C)(C)c2ccc(Oc3cccc(N)c3)cc2)cc1 | 138 to 140
COc1cc(C(=O)NC2OCC(c3ccccc3)N3CCCCC23)cc(OC)c1OC (stereo unspecified) | 126 to 128
O=C(O)CCC(=O)c1ccc(Br)s1 | 141 to 143
COC(=O)CC[C@H](NC(=O)OC(C)(C)C)C(=O)O | 74 to 77
CCCc1cnc2c(NC(=O)c3c(Cl)cccc3Cl)cccc2c1NNC(C)=O | 223 to 226
Cc1c(NC(=O)c2ccc(OC[C@@H]3CCCO3)cc2)ccc2[nH]c(CNCC3CCOCC3)cc12 | 166 to 167
O=C1NCCc2c(-c3cccc(Cl)c3)[nH]c3cccc1c23 | 147 to 149
CCCCCCCCCCCCCC(=O)c1cc(O)c(C)cc1O | 83
CCC(=O)N1C(=O)C(=O)c2cc(F)ccc21 | 150 to 152
Cc1c(Cl)cccc1-n1nc(C(N)=O)nc1-c1ccccc1 | 198 to 200
CCCCCCCCCCCCCCOc1ccc(NCc2cccnc2)cc1 | 75 to 76

SMILES | melting point [°C]
O=C1OC(c2ccccc2)(c2ccccc2)C2CN(c3nc4ccccc4o3)CCN12 (stereo unspecified) | 260
CC(=O)SCC(C)NS(=O)(=O)c1c(C)cc(C)cc1C (stereo unspecified) | 123 to 126
COc1ccc2c(c1)cc(Cc1cc3ccccc3n1S(=O)(=O)c1ccccc1)n2S(=O)(=O)c1ccccc1 | 98 to 100
CONCc1nc2c(N)nc3cc(OCc4ccccc4)ccc3c2n1CC1CCOCC1 | 190 to 193
O=C(COc1cc(Cl)c(Cl)cc1Cl)OCNC(=O)Oc1ccccc1Cl | 119
Cc1cn(CC(O)(CC(C)(C)c2cccc3c2OCC3)C(F)(F)F)c(CO)c(C)c1=O (stereo unspecified) | 160 to 162
O=C(Nc1ccc2[nH]c(CO)cc2c1)c1cc2ccccc2o1 | 164 to 165
CC(C)CCOc1ccc2sc(C(=O)O)cc(=O)c2c1 | 208 to 209
COc1ccc(CC(C(O)CCC(C#N)(c2ccc(OC)c(OC)c2)C(C)C)[N+](=O)[O-])cc1OC (stereo unspecified) | 171 to 173
CC(C)(CCl)C(=O)N(Cc1ccccc1Cl)OC(=O)c1ccccc1 | 117 to 120
CCON=C(CC)C1=C(O)CC(c2ccc(NC(C)=O)cc2)CC1=O (stereo unspecified) | 135 to 136
COc1cc(C2=NNC(=O)CC2)ccc1O | 209 to 210
CCc1cc(N)c([N+](=O)[O-])cc1CC | 63 to 65
CC(C)CC(NC(=O)c1ccc(F)cc1SSc1cc(F)ccc1C(=O)NC(CC(C)C)C(=O)O)C(=O)O (stereo unspecified) | 261 to 262
O=c1c2ccc(Cl)cc2[nH]c2c(=O)n(-c3ccc(O)cc3)nc(O)c12 | 393 to 395
C=C1N(CCC)C(=O)OC12CCN(CC=C(c1ccccc1)c1ccccc1)CC2 | 126 to 127
COc1cc(C(=O)NS(=O)(=O)c2ccccc2Cl)ccc1Cc1cn(C)c2ccc(CC(C)NC(=O)N(C)C)cc12 (stereo unspecified) | 131 to 136
CCc1ccccc1S(=O)(=O)N(OCCF)C(=O)n1nc(C)n(C2CC2)c1=O | 147
Cc1cc(=O)on1C(=O)c1ccc(Cl)cc1Cl | 137 to 139
COC(=O)c1cccnc1C(=O)CC(=O)c1ccccc1 | 87
CC(C)(Oc1ccc(NC(=O)c2cc(Cl)cc(Cl)c2)cc1)C(=O)O | 206 to 207
Clc1cnn(-c2ccc(CBr)c(Cl)c2)c1 | 77 to 78
CC1(CCC#N)N=C(c2ccc(Cl)cc2)OC1=O (stereo unspecified) | 97 to 98
CC(C)NCC(O)COc1cccc(-c2nc(C(F)(F)F)c[nH]2)c1 (stereo unspecified) | 162 to 164
C#CCN(C)Cc1nc2ccc(OC(F)(F)F)cc2s1 | 117 to 120
Nc1c(C(=O)Nc2nnn[nH]2)oc2ccccc12 | 185

SMILES | melting point [°C]
Cc1c(CO)ncn1Cc1ccccc1 | 176 to 180
O=C1C(=O)c2ccccc2C2=C1SCC1(CCC(c3ccccc3)CC1)O2 (stereo unspecified) | 183 to 187
COC(=O)Cn1c(=O)c(=O)[nH]c2cc(N)c(Cl)cc21 | > 260
COc1ccc(Cl)c(Oc2c(NS(=O)(=O)c3ccc4c(c3)OCO4)ncnc2OCCO)c1 | 148 to 150
Cc1oc(=O)oc1CS[C@H](C)[C@](O)(Cn1cncn1)c1ccc(F)cc1F (racemic) | 173 to 174
COc1ccc(CN2Cc3cc(OC)c(O)cc3C(OC)C2)cc1 (stereo unspecified) | 84 to 85
CC(C)c1cc(S(=O)(=O)c2ccc(N)cc2)cc(N2CCCC2)n1 | 148 to 150
CCCCC(C)(CC)C(O)C(Oc1ccc(-c2ccccc2)cc1)n1cncn1 (stereo unspecified) | 120 to 122
Cc1ccc(-c2nc3sc4ccccc4n3c2CC(N)=O)s1 | 243 to 245
CCOc1cc2ncc(C#N)c(N(C)c3ccccc3)c2cc1OCC | 153 to 155
O=C1c2ccccc2S(=O)(=O)N1C1CCN(CC2COc3ccccc3O2)CC1 (stereo unspecified) | 224 to 230
Oc1cnccc1CCCOc1cccnc1Oc1ccccc1 | 163 to 165
COC1C(O)C(CO)OC1n1cnc2c(N)nc(N)nc21 (stereo unspecified) | 133 to 135
COC(=O)CCC1OC(=O)C(O)=C1c1ccccc1 (stereo unspecified) | 135 to 136
COc1ccc(Cn2c(=O)[nH]c3ccc(C(=O)NCc4ccc5c(c4)OCO5)cc3c2=O)cc1 | 252
Cc1cc(-c2cc(C(F)F)n3ncc(C(=O)Nc4cccc(S(=O)(=O)N5CCN(C)CC5)c4)c3n2)ccc1C(F)(F)F | 198
CC(C)(C)OC(=O)CC(=O)c1ccc(C#N)cc1 | 82 to 83
Cc1ccc(-c2c3c(cc4ccc(O)cc24)-c2ccc(O)cc2CO3)cc1 | 238 to 240
CCNc1ccc(Cl)nc1 | 65 to 66
CC1c2cccc3c2N(CC3)c2ccccc2N1C(=O)CCN(C)C (stereo unspecified) | 138 to 142
CCN(CC)CCNC(=O)c1ccc(I)c2cc3ccccc3nc12 | 103 to 105
Cc1ccccc1CN(c1ncnc2c1ncn2C1OC(CO)C(O)C1O)C1CCCCC1 (stereo unspecified) | 129 to 130
CCC1(CCCCN2CCc3sccc3C2)C(=O)Nc2ccc(Br)cc21 (stereo unspecified) | 149 to 151
CS(=O)(=O)n1c(C#N)nc2cc3c(cc21)OC(F)(F)C(F)(F)O3 | 180 to 183
O=C1N(Cc2ccc3c(c2)OCCO3)c2ccccc2C12COc1cc3c(cc12)CCO3 (stereo unspecified) | 173 to 175
CC(C)(C)c1ccc(NC(=O)NCc2ccc(-n3c(-c4cccnc4N)nc4cccnc43)cc2)cc1 | 210 to 212

SMILES | melting point [°C]
COC(=O)c1cccc(Oc2cccc(-c3nn(Cc4ccc(C(F)(F)P(=O)(O)O)c(Cl)c4)c(=Nc4ccc(Cl)c(Cl)c4)s3)c2)c1 | 137 to 139
CCCOC(=NC#N)c1ccc(N)nc1 | 150
COC(=O)[C@H](O)[C@@H](N)c1ccc(C(N)=O)cc1 | 206
CCCc1c(C(=O)OCC)c2c3c(ccc2n1C)OC1c2ccc(SC)cc2CCN1C3 (stereo unspecified) | 139 to 143
Cc1cc(-c2cc3ncccc3c(=O)[nH]2)cc(C)c1O | > 350
COc1ccc(C2=Nc3ccc(N4CCOCC4)cc3C(=O)C2)cc1 | 302 to 304
O=C1NC(=O)C(CCCc2ccc3oc(Cc4ccc5ccccc5c4)nc3c2)O1 (stereo unspecified) | 151 to 152
CCCCc1ccc2nnc(C(=O)O)cc2c1 | 131 to 133
CCc1cc(OC)cc(=O)o1 | 54 to 55
O=[N+]([O-])c1cc(NCCO)c(Cl)cc1NCCO | 127 to 128
N#CC1(C#N)CN=C(O)C(c2cc(O)c(O)c([N+](=O)[O-])c2)=N1 | > 300
O=C(Nn1c(=O)c(=O)[nH]c2ccc3ccccc3c21)c1ccccc1 | > 300
OC1CSC(Oc2cccc(-c3cccs3)c2)C(O)C1O (stereo unspecified) | 165 to 166
COc1cccc(-c2ccc(-c3ccc(C(=O)O)cc3)cc2-c2ccc3c(c2)C(C)(C)CCC3(C)C)c1 | 116 to 118
Cc1nc(CO)c2n1-c1ccc(Cl)cc1C(c1ccccc1Cl)=NC2 | 215 to 217
COC(=O)c1cc2ccccc2o1 | 53.8 to 54
Oc1cccc(-c2nc3cccc(CBr)c3o2)c1 | 225 to 228
O=C(O)CN1CCOCC1 | 169 to 170
O=C1NCCN1c1ccc(S(=O)(=O)Nc2ccc(OC(F)F)cc2)cc1 | 198 to 200
O=C(Nc1ccc(-n2nc(C(F)(F)F)cc2C(F)(F)F)cc1)c1cc(Cl)cnc1Cl | 228 to 229
CN(C)CCSc1cc(NC(=O)OC(C)(C)C)c([N+](=O)[O-])cc1I | 144
O=C(O)c1cc(Cl)cc2c1O[C@@H]1CCCC[C@H]21 (relative stereo) | 132 to 134
OCCSc1nc(-c2ccccc2)c2cc(Cl)ccc2n1 | 124
